Data taken from PubChem BioAssay AID1845211 (Molecular Pharmacology Branch, DTP, NCI, 2023).
Where “and” joins values, the source holds several entries; their conditions need not be identical. Equal entries are not always repeated.

System: NCI-H322M multicellular tumor spheroids, viability (% test/control)
Assay: Anticancer human tumor NCI-H322M cell line growth inhibition;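 as to viability, T/C: spheroids exposed to compound for seven days before readout; 100% = DMSO vehicle control wells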
Settings: for viability, T/C: stronger effect = lower value; active = viability on the fitted dose curve at most 10% of control; inactive = the rest
Summary of the method: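 Single agents and combinations were tested on spheroids built from tumor cells plus HUVEC and hMSC, at half-log dilutions starting at or near clinical Cmax, else 10 microM; final DMSO 0.25% (v/v).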

[1] = curve of first compound, second compound 1 µM
[2] = curve of first compound, second compound 3.16 µM
[3] = curve of first compound, second compound 10 µM
[4] = curve of first compound, second compound 31.6 µM
[5] = curve of first compound, second compound 100 µM
[6] = curve of first compound, second compound 30 pM
[7] = curve of first compound, second compound 94.9 pM
[8] = curve of first compound, second compound 0.0003 µM
[9] = curve of first compound, second compound 0.000949 µM
[10] = curve of first compound, second compound 0.003 µM
[11] = second compound 30 pM, first compound 0.0949 µM
[12] = second compound 30 pM, first compound 0.3 µM
[13] = second compound 30 pM, first compound 0.949 µM
[14] = second compound 30 pM, first compound 3 µM
[15] = second compound 94.9 pM, first compound 0.0949 µM
[16] = second compound 94.9 pM, first compound 0.3 µM
[17] = second compound 94.9 pM, first compound 0.949 µM
[18] = second compound 94.9 pM, first compound 3 µM
[19] = second compound 0.0003 µM, first compound 0.0949 µM
[20] = second compound 0.0003 µM, first compound 0.3 µM
[21] = second compound 0.0003 µM, first compound 0.949 µM
[22] = second compound 0.0003 µM, first compound 3 µM
[23] = second compound 0.000949 µM, first compound 0.0949 µM
[24] = second compound 0.000949 µM, first compound 0.3 µM
[25] = second compound 0.000949 µM, first compound 0.949 µM
[26] = second compound 0.000949 µM, first compound 3 µM
[27] = second compound 0.003 µM, first compound 0.0949 µM
[28] = second compound 0.003 µM, first compound 0.3 µM
[29] = second compound 0.003 µM, first compound 0.949 µM
[30] = second compound 0.003 µM, first compound 3 µM

Cn1ncnc1[C@H]1c2n[nH]c(=O)c3cc(F)cc(c23)N[C@@H]1c1ccc(F)cc1 + Cn1nnc2c(C(N)=O)ncn2c1=O
inactive: viability, T/C (second compound 1 µM, first compound 0.00949 µM) 89.4% | viability, T/C (second compound 1 µM, first compound 0.03 µM) 79.4% | viability, T/C (second compound 1 µM, first compound 0.0949 µM) 87.8% | viability, T/C (second compound 1 µM, first compound 0.3 µM) 81.2% | viability, T/C (second compound 1 µM, first compound 0.949 µM) 88.8% | viability, T/C (second compound 1 µM, first compound 3 µM) 70% | viability, T/C (second compound 3.16 µM, first compound 0.00949 µM) 77.9% | viability, T/C (second compound 3.16 µM, first compound 0.03 µM) 113% | viability, T/C (second compound 3.16 µM, first compound 0.0949 µM) 84.3% | viability, T/C (second compound 3.16 µM, first compound 0.3 µM) 74.3% | viability, T/C (second compound 3.16 µM, first compound 0.949 µM) 81.5% | viability, T/C (second compound 3.16 µM, first compound 3 µM) 67.8% | viability, T/C (second compound 10 µM, first compound 0.00949 µM) 83.1% | viability, T/C (second compound 10 µM, first compound 0.03 µM) 71% | viability, T/C (second compound 10 µM, first compound 0.0949 µM) 73.8% | viability, T/C (second compound 10 µM, first compound 0.3 µM) 76.2% | viability, T/C (second compound 10 µM, first compound 0.949 µM) 77.1% | viability, T/C (second compound 10 µM, first compound 3 µM) 59.3% | viability, T/C (second compound 31.6 µM, first compound 0.00949 µM) 90.3% | viability, T/C (second compound 31.6 µM, first compound 0.03 µM) 74.1% | viability, T/C (second compound 31.6 µM, first compound 0.0949 µM) 78.8% | viability, T/C (second compound 31.6 µM, first compound 0.3 µM) 76.5% | viability, T/C (second compound 31.6 µM, first compound 0.949 µM) 70.9% | viability, T/C (second compound 31.6 µM, first compound 3 µM) 69.3% | viability, T/C (second compound 100 µM, first compound 0.00949 µM) 92.2% | viability, T/C (second compound 100 µM, first compound 0.03 µM) 68.8% | viability, T/C (second compound 100 µM, first compound 0.0949 µM) 64.5% | viability, T/C (second compound 100 µM, first compound 0.3 µM) 68.9% | viability, T/C (second compound 100 µM, first compound 0.949 µM) 59.5% | viability, T/C (second compound 100 µM, first compound 3 µM) 57.7%
> 3 µM: IC50 [1] | IC50 [2] | IC50 [3] | IC50 [4] | IC50 [5]

[2H]c1nc(C)nc([2H])c1-c1cc(NC[C@@H](C)c2cccc3c(C(=O)NC)ccnc23)ncn1
inactive: viability, T/C (compound 0.0316 µM) 78.5% and 92.3% and 103% | viability, T/C (compound 0.1 µM) 84.9% and 85.2% and 114% | viability, T/C (compound 0.316 µM) 81% and 104% and 97.4% | viability, T/C (compound 1 µM) 85.9% and 101% (2×) | viability, T/C (compound 3.16 µM) 84.4% and 87.3% and 106% | viability, T/C (compound 10 µM) 88.4% and 85.9% and 108%
> 10 µM: IC50 (curve of compound)

O=C(c1cc(Cc2n[nH]c(=O)c3ccccc23)ccc1F)N1CCN(C(=O)C2CC2)CC1 + COc1cc2c(cc1O)CCNC21CSC2c3c(OC(C)=O)c(C)c4c(c3C(COC1=O)N1C(O)C3Cc5cc(C)c(OC)c(O)c5C(C21)N3C)OCO4
20.8 µM: IC50 [9]
active: viability, T/C [29] 8.06% | viability, T/C [30] 7.88% | viability, T/C (second compound 0.003 µM, first compound 9.49 µM) 4.62% | viability, T/C (second compound 0.003 µM, first compound 30 µM) 1.81%
< 0.0949 µM: IC50 [10]
> 30 µM: IC50 [6] | IC50 [7] | IC50 [8]
inactive: viability, T/C [11] 81.3% | viability, T/C [12] 84.3% | viability, T/C [13] 90.6% | viability, T/C [14] 79.8% | viability, T/C (second compound 30 pM, first compound 9.49 µM) 85.8% | viability, T/C (second compound 30 pM, first compound 30 µM) 110% | viability, T/C [15] 90.7% | viability, T/C [16] 84.9% | viability, T/C [17] 88.5% | viability, T/C [18] 87.5% | viability, T/C (second compound 94.9 pM, first compound 9.49 µM) 79.4% | viability, T/C (second compound 94.9 pM, first compound 30 µM) 98.5% | viability, T/C [19] 99.6% | viability, T/C [20] 84.7% | viability, T/C [21] 79.9% | viability, T/C [22] 83.3% | viability, T/C (second compound 0.0003 µM, first compound 9.49 µM) 79.8% | viability, T/C (second compound 0.0003 µM, first compound 30 µM) 95.9% | viability, T/C [23] 83.4% | viability, T/C [24] 77.7% | viability, T/C [25] 69.5% | viability, T/C [26] 72.7% | viability, T/C (second compound 0.000949 µM, first compound 9.49 µM) 67.6% | viability, T/C (second compound 0.000949 µM, first compound 30 µM) 42.2% | viability, T/C [27] 11.3% | viability, T/C [28] 14.1%

Cc1sc2c(c1C)C(c1ccc(Cl)cc1)=NC(CC(=O)Nc1ccc(O)cc1)c1nnc(C)n1-2 (configuration not stated) + COc1cc2c(cc1O)CCNC21CSC2c3c(OC(C)=O)c(C)c4c(c3C(COC1=O)N1C(O)C3Cc5cc(C)c(OC)c(O)c5C(C21)N3C)OCO4
active: viability, T/C [26] 11.9% | viability, T/C (second compound 0.003 µM, first compound 0.00949 µM) 9.9% | viability, T/C (second compound 0.003 µM, first compound 0.03 µM) 6.99% | viability, T/C [27] 6.13% | viability, T/C [28] 2.83% | viability, T/C [29] 1.47% | viability, T/C [30] 1.17%
1.59 µM: IC50 [8]
inactive: viability, T/C (second compound 30 pM, first compound 0.00949 µM) 113% | viability, T/C (second compound 30 pM, first compound 0.03 µM) 118% | viability, T/C [11] 136% | viability, T/C [12] 112% | viability, T/C [13] 74% | viability, T/C [14] 60.1% | viability, T/C (second compound 94.9 pM, first compound 0.00949 µM) 104% | viability, T/C (second compound 94.9 pM, first compound 0.03 µM) 112% | viability, T/C [15] 123% | viability, T/C [16] 110% | viability, T/C [17] 72.5% | viability, T/C [18] 53.6% | viability, T/C (second compound 0.0003 µM, first compound 0.00949 µM) 117% | viability, T/C (second compound 0.0003 µM, first compound 0.03 µM) 133% | viability, T/C [19] 133% | viability, T/C [20] 119% | viability, T/C [21] 63.9% | viability, T/C [22] 33.1% | viability, T/C (second compound 0.000949 µM, first compound 0.00949 µM) 127% | viability, T/C (second compound 0.000949 µM, first compound 0.03 µM) 87.6% | viability, T/C [23] 80.7% | viability, T/C [24] 60.2% | viability, T/C [25] 19.5%
> 3 µM: IC50 [6] | IC50 [7]
< 0.00949 µM: IC50 [10]
0.333 µM: IC50 [9]

COc1cc(C)[nH]c(=O)c1CN1CCc2c(Cl)cc(C(OC)C3COC3)c(Cl)c2C1=O (configuration not stated) + Cn1nnc2c(C(N)=O)ncn2c1=O
inactive: viability, T/C (second compound 1 µM, first compound 0.0316 µM) 90.6% | viability, T/C (second compound 1 µM, first compound 0.1 µM) 93.2% | viability, T/C (second compound 1 µM, first compound 0.316 µM) 97.7% | viability, T/C (second compound 1 µM, first compound 1 µM) 106% | viability, T/C (second compound 1 µM, first compound 3.16 µM) 88.1% | viability, T/C (second compound 1 µM, first compound 10 µM) 93.3% | viability, T/C (second compound 3.16 µM, first compound 0.0316 µM) 97.5% | viability, T/C (second compound 3.16 µM, first compound 0.1 µM) 85.8% | viability, T/C (second compound 3.16 µM, first compound 0.316 µM) 97.4% | viability, T/C (second compound 3.16 µM, first compound 1 µM) 99.5% | viability, T/C (second compound 3.16 µM, first compound 3.16 µM) 95.4% | viability, T/C (second compound 3.16 µM, first compound 10 µM) 100% | viability, T/C (second compound 10 µM, first compound 0.0316 µM) 100% | viability, T/C (second compound 10 µM, first compound 0.1 µM) 108% | viability, T/C (second compound 10 µM, first compound 0.316 µM) 97.2% | viability, T/C (second compound 10 µM, first compound 1 µM) 92.3% | viability, T/C (second compound 10 µM, first compound 3.16 µM) 90.2% | viability, T/C (second compound 10 µM, first compound 10 µM) 91.6% | viability, T/C (second compound 31.6 µM, first compound 0.0316 µM) 91% | viability, T/C (second compound 31.6 µM, first compound 0.1 µM) 113% | viability, T/C (second compound 31.6 µM, first compound 0.316 µM) 102% | viability, T/C (second compound 31.6 µM, first compound 1 µM) 92.3% | viability, T/C (second compound 31.6 µM, first compound 3.16 µM) 94.1% | viability, T/C (second compound 31.6 µM, first compound 10 µM) 96.5% | viability, T/C (second compound 100 µM, first compound 0.0316 µM) 109% | viability, T/C (second compound 100 µM, first compound 0.1 µM) 106% | viability, T/C (second compound 100 µM, first compound 0.316 µM) 114% | viability, T/C (second compound 100 µM, first compound 1 µM) 89.7% | viability, T/C (second compound 100 µM, first compound 3.16 µM) 95% | viability, T/C (second compound 100 µM, first compound 10 µM) 101%
> 10 µM: IC50 [1] | IC50 [2] | IC50 [3] | IC50 [4] | IC50 [5]
